Source: US10493100B2, “Pharmaceutical composition for preventing or treating brain cancer including crystal polymorph of tetraarsenic hexoxide, and method for preparing same” (CHEMAS CO., LTD., priority 2016, dated 2019)

Experiments:
[1] = test system: human brain glioblastoma cell line U-87MG; assay: Cell proliferation assay (MTT assay), U-87MG; assay type: cell-based
Experimental: (§1) Fetal bovine serum (FBS) and cell culture medium were prepared (Hyclone), and dimethyl sulfoxide (DMSO) and 3-(4,5-dimetyl-thiazol-2yl)-2,5-diphenyltetrazolium bromide (MTT, Amresco LLC, USC) were prepared.
(§2) As human cancer cell lines, human brain glioblastoma cell lines U-87MG and U-118MG were obtained from the Shanghai Cell Bank of Chinese Academy of Sciences. The cells were incubated in Eagle's Minimum Essential Medium (EMEM), supplemented with 10% FBS, 100 U/ml penicillin, and 100 μg/ml streptomycin according to the culture condition, in a humidified incubator with 5% CO2 and 95% air. The medium was exchanged every three days.
(§3) The effects of Example 1 and Comparative Examples 1 to 3 on cell proliferation were assessed using MTT assay. MTT assay is based on the ability of viable cells against MTT to produce insoluble dark blue formazan products. After the cells were suspended in the medium by trypsin treatment and collected, the cells were dispensed at a density of 4×10^3 cells/well in a 96-well culture dish (Costar, Cambridge, Mass., USA). After 24 hours, Example 1 and Comparative Examples 1 to 3 as treatment samples were added, at 0, 0.625, 1.25, 2.5, 5, 10, 20, 40, or 80 μM, to the cells in the media containing 10% FBS, and then the cells were incubated. […] All the crystals were completely dissolved by standing at room temperature for 15 minutes, and the absorbance was measured using a micro-plate reader at a wavelength of 570 nm (A570 nm).
(§4) The absorbance value of the control group treated without the sample was calculated as 100, and the absorbance value of the treatment group treated with the sample, compared with that of the control group, was calibrated, and the percentage of inhibition of cell proliferation was calculated according to the following equation. Percentage (%) of inhibition of cell proliferation=((mean absorbance of control group cells−mean absorbance of treatment group cells)/mean absorbance of control group cells)×100
(§5) All data were expressed as mean±standard error of the mean (mean±SEM). […]

[2] = test system: human brain glioblastoma cell line U-118MG; assay: Cell proliferation assay (MTT assay), U-118MG; assay type: cell-based
Experimental: as §1, §2, §3, §4, §5

gliomatosis cerebri = assay: Clinical Test-1: patient; assay type: in vivo, human
Experimental: (§6) The following clinical tests were conducted using the composition of Example 1.
From the 10th day after the diagnosis, mobility weakening and trembling symptoms of both arms began to appear and then proceeded rapidly. […] Pre-treatment MRI images of this patient are shown in FIG. 4, and MRI images after two months and three months of radiotherapy together with administration of Example 1 are shown in FIGS. 5 and 6, respectively.

[3] = test system: glioblastoma in the left parieto-temporal lobe; assay: Clinical Test-2: patient; assay type: in vivo, human; conditions: after surgery, radiotherapy and Tremodal
Experimental: as §6
This patient with symptoms of headache, vomiting, diplopia, and visual field defect was diagnosed with glioblastoma in the left parieto-temporal lobe. On the 3rd day after the diagnosis, tumor removal was conducted by surgery, and the tumor was confirmed as glioblastoma of the WHO grade IV/IV as a result of pathologic diagnosis. Radiotherapy with Tremodal treatment (61.2 Gy/33fx) was performed from the 45th day to the 90th day after the diagnosis. The remaining tumors were still confirmed on MRI images after the radiotherapy and Tremodal treatment. From the 95th day after the diagnosis, 5 mg of Example 1 was administered three times a day for 17 months. […] The pre-treatment MRI images of this patient are shown in FIG. 7, and MRI images after the surgery and radiotherapy are shown in FIG. 8. Respective images after four months, seven months, and ten months of administration of Example 1 are shown in FIGS. 9A, 9B, and 9C, respectively.

[4] = test system: U-87MG cells labeled with luciferase; assay: In vivo efficacy test, tumor imaging signal in animal models transplanted with human brain glioblastoma cell line; parameters: species or system Balb/C female nude mice; conditions: 2.25 mg/kg once daily
Experimental: (§7) The human brain glioblastoma cell line U-87MG (purchased from ATCC) was incubated in Eagle's Minimum Essential Medium (EMEM) supplemented with 10% FBS, 100 U/ml penicillin, and 100 μg/ml streptomycin in an incubator under conditions of 37° C., 5% CO2, and 95% air. The medium was exchanged every three days.
(§8) The U-87MG cells labeled with luciferase were inoculated into the primary site of the brain in […] Balb/C female nude mice weighing 16-19 g, and the amount of cells inoculated was 5×10^5/5 uL. The animals were subjected to imaging examinations on the 6th day after the inoculation, when the surgical sites of the animals were restored and the tumor cells were slightly grown. The animals were randomly divided into two groups, four animals for each group, according to the imaging results. A test group was administered with a solution containing Example 1 dissolved in physiological saline (0.9% NaCl), and a control group was administered with only physiological saline, which is a solvent used for the test group. The animals of the two groups were administered once daily with physiological saline or 2.25 mg/kg Example 1. The dose was 10 uL/g on the basis of the weight of the animals. During the administration, the weight and health conditions of the animals were continuously monitored, and at the same time, the animals were subjected to image examination.

[5] = Weight measurement in animal models transplanted with human brain glioblastoma cell line; assay type: in vivo, Balb/C female nude mice
Experimental: as §7, §8

[6] = compared with Comparative Example 2 or 3 (4:1 or 1:1 mixtures)
[7] = from the 7th day of administration (FIG. 10A)

## tetraarsenic hexoxide [Example 1]
[1]; [6]
  percentage of inhibition of brain glioblastoma cell proliferation: higher
[1]; incubation 48 hours (FIG. 2A), compared with Comparative Example 1
  percentage of inhibition of brain glioblastoma cell proliferation: higher
[1]; incubation 72 hours (FIG. 2B), compared with Comparative Example 1
  percentage of inhibition of brain glioblastoma cell proliferation: higher
[2]; [6]
  percentage of inhibition of brain glioblastoma cell proliferation: higher
[2]; incubation 48 hours (FIG. 3A), compared with Comparative Example 1
  percentage of inhibition of brain glioblastoma cell proliferation: higher
[2]; incubation 72 hours (FIG. 3B), compared with Comparative Example 1
  percentage of inhibition of brain glioblastoma cell proliferation: higher
Gliomatosis cerebri; 15 mg per day from the 17th day after the diagnosis, before radiotherapy
  mobility weakening and trembling symptoms: began to improve
Gliomatosis cerebri; 15 mg per day together with radiotherapy from the 27th to the 75th day after the diagnosis
  symptoms: the symptoms disappeared completely
Gliomatosis cerebri; after three months of radiotherapy together with administration (FIG. 6)
  tumor size on MRI images: tumors almost disappeared
Gliomatosis cerebri; after two months of radiotherapy together with administration (FIG. 5)
  tumor size on MRI images: tumor sizes were reduced
[3]; 5 mg three times a day for 17 months
  sizes of remaining tumors (MRI): confirmed to decrease
[3]; 5 mg three times a day, from 2 months of administration
  subjective symptoms: no subjective symptom
[4]; 7th and 9th days of administration (FIG. 10B), control group vs test group
  luminescence signal intensities due to the proliferation and metastasis of tumors: in the control group were much stronger than those in the test group
[4]; [7]
  tumor signal intensities: significantly light
  tumor signals in the spine (tumor metastasis into the spine): hardly observed in the spine
[5]; 2.25 mg/kg once daily
  Body change 9 days after the first administration: -0.8 g
[5]; 2.25 mg/kg once daily, mean ± SEM, 4 animals
  Weight 9 days after the first administration: 16.1 ± 0.5 g
[5]; 2.25 mg/kg once daily, control group largely reduced
  weight after 9 days of drug administration (in words): almost unchanged weight
[5]; test group, mean ± SEM, 4 animals, baseline
  Weight before administration: 16.9 ± 0.2 g
